# Source: PMC5487681, “Identification of Antifungal H^+-ATPase Inhibitors with Effect on Plasma Membrane Potential” (Antimicrobial Agents and Chemotherapy, 2017)
# Where two headings read alike, the source gives them in different places. Residues, ends and D or L forms follow the SMILES beside them.
# How the values were obtained:
# [1] = target: T1, C. albicans Pma1 (Candida albicans, UniProt P28877); test: ATP hydrolysis assay, C. albicans Pma1; type: biochemical
# T1 construct: endogenous in cells
# Protocol: A 100-ml overnight culture in YPD medium [10 g/liter yeast extract (BD, Sparks, MD), 20 g/liter Bacto peptone (BD), 20 g/liter D-(+)-glucose] was transferred to 1 liter YPD medium and grown at room temperature and 150 rpm for 18 h for wild-type S. cerevisiae (ATCC 9763) and 7 h for C. albicans. The cells were harvested and washed in Milli-Q H2O by centrifugation at 3,360 × g. The cells were glucose activated by the addition of 10% D-(+)-glucose for 10 min while shaking. The cells were then centrifuged at 3,360 × g for 3 min and frozen. Cells (60 to 80 g, wet weight) were then disrupted by bead beating (BioSpec, Bartlesville, OK) and processed as described in reference to prepare the plasma membranes. […] All batches were validated by ATPase hydrolysis activity, pH optimum, and orthovanadate sensitivity.
# The protein activity levels were determined by measuring the amount of free phosphate produced from the ATP hydrolysis reaction. The assay was performed as described in reference. Each well contained ATPase enzyme, 2 μl of inhibitor (usually in the range of 333 to 0.01 μM) dissolved in dimethyl sulfoxide (DMSO) (Duchefa Biochemie, Haarlem, The Netherlands), and an assay buffer dependent on the enzyme for a final volume of 60 μl. Possible compound precipitation in the assay buffer was monitored using a Nephelostar plate reader measuring turbidity, and the information was taken into account in the IC50 determination. Pma1 assay buffer consisted of 20 mM 3-(N-morpholino)propanesulfonic acid (MOPS)–NaOH, pH 6.5 or 7.0, 8 mM MgSO4, 50 mM KNO3 (a vacuolar ATPase inhibitor), 25 mM sodium azide (a mitochondrial ATPase inhibitor), and 250 μM sodium molybdate (an acid phosphatase inhibitor). SERCA buffer consisted of 9 mM MOPS-NaOH, pH 7, 2.7 mM MgCl2, 90 μM CaCl2, and 72 mM KCl. Na^+,K^+-ATPase buffer consisted of 30 mM MOPS-NaOH, pH 7, 40 mM NaCl, 4 mM MgCl2, and 20 mM KCl. The concentration of protein was adjusted to obtain a signal of the optical density at 860 nm (OD860) of between 0.5 and 1.0 in the untreated samples (for all Pma1 batches, ∼1 to 2 μg/well; for SERCA and Na^+,K^+-ATPase, ∼0.1 to 0.2 μg/well). BM2 ([…]-NH2, D-form amino acids) was custom synthesized by Peptide 2.0 (Chantilly, VA).
# [2] = test system: Aspergillus flavus ATCC MYA-1005; test: microbe, parasite or virus in culture; type: cell-based; settings: read-out: MIC for growth inhibition, A. flavus
# Protocol: (§1) The following fungal isolates were used: Saccharomyces cerevisiae ATCC 9763, Candida albicans SC5314, Candida parapsilosis ATCC 22019, Candida tropicalis Ct016, Candida glabrata ATCC 90030, Aspergillus fumigatus ATCC 13073, and Aspergillus flavus ATCC MYA-1005. Frozen stocks of yeast isolates in glycerol (final concentration, 20%) were prepared by growing the cells to log phase in YPD medium at 30°C and 150 rpm. Frozen stocks of mold spores were prepared by harvesting spores from 7-day-old potato glucose agar plates in phosphate-buffered saline, 0.1% Tween 80 and aliquoting these spores in the presence of glycerol (final concentration, 20%). The cells were stored at −80°C. The cells or spores were thawed and diluted to a final concentration of 0.5 × 10^5 to 2.5 × 10^5 CFU/ml in sterile Milli-Q H2O. […] The plate was incubated for 20 to 24 h at 34°C (72 h for molds), and the OD490 was measured on a Victor X5 (PerkinElmer) plate reader. Mold growth assay plates were also visually inspected. The MIC was defined as the lowest concentration inhibiting the visual growth of the microorganism. Standard errors were typically below 5%.
# [3] = test system: Saccharomyces cerevisiae ATCC 9763; test: microbe, parasite or virus in culture; type: cell-based; settings: read-out: MIC for growth inhibition, S. cerevisiae
# Protocol: as §1
# [4] = test system: Hep-G2 cells; test: cells; type: cell-based, human
# Protocol: In a tissue culture-treated 96-well plate (catalog number 655180; Grenier), 10,000 human hepatocyte Hep-G2 cells (catalog number 85011430; Sigma-Aldrich) were plated in 200 μl growth medium (Eagle minimal essential medium; catalog number M2279; Sigma-Aldrich), 2 mM L-glutamine (catalog number 03-020-1B; Biological Industries), 1% nonessential amino acids (catalog number XC-E1154/100; Biosera), 10% fetal bovine serum (catalog number BI-04-007-1A; Biological Industries) and incubated overnight at 37°C in 5% CO2. On the next day, fresh growth medium plus 2 μl compound in DMSO was added. The plate was incubated for a further 24 h at 37°C in 5% CO2. The medium was replaced with 100 μl freshly prepared 0.5 mg/ml 2,3-bis(2-methoxy-4-nitro-5-sulfophenyl)-5-[(phenylamino)carbonyl]-2H-tetrazolium hydroxide, sodium salt, solution (catalog number X4251; Sigma-Aldrich) in RPMI 1640 medium (catalog number R7509; Sigma-Aldrich) with 3.83 μg/ml phenazine methosulfate (catalog number P9625; Sigma-Aldrich) and incubated for 2 to 3 h at 37°C in 5% CO2. The color reaction was measured on a Victor X5 plate reader (PerkinElmer) by determination of the OD450 and the half-maximal (50%) effective concentration (EC50) was calculated.
# [5] = Compound precipitation in the fungal growth medium; type: physicochemical; settings: fungal growth medium (RPMI), footnotes of Table 1
# Protocol: as §1
# [6] = test system: Candida spp.; test: Fungal growth inhibition, Candida spp. (text summary of Table 1); type: cell-based; settings: 38 μM highest concentration tested for compounds 4 and 8, read-out: MIC for several of the Candida spp. tested
# Protocol: as §1
# [7] = target: Ca^2+-ATPase (SERCA1a) (Oryctolagus cuniculus, UniProt P04191); test: ATP hydrolysis assay, SERCA; type: biochemical, rabbit; settings: Table 1
# [8] = test system: S. cerevisiae; test: Medium acidification assay, S. cerevisiae; type: cell-based, Saccharomyces cerevisiae; settings: 50% inhibition of medium acidification, 12 min, n = 2 to 3
# Protocol: Frozen stocks of C. albicans and S. cerevisiae were transferred to YPD agar plates and incubated overnight at 34°C. On the next day, the cells were suspended and washed twice in 50 mM KCl, pH 6.7, after pelleting of the cells by centrifugation at 3,000 × g for 5 min. The cells were then starved overnight at 4°C in the KCl solution. […] The pH drop was then monitored by determination of the fluorescent signal with excitation at 485 nm and emission at 538 nm on a Fluoroskan Ascent plate reader (Thermo Fisher Scientific) for 12 min. The rate of medium acidification was calculated on the basis of the slope of the drop in fluorescence.
# [9] = Table 2, pH 7, n = 2, read-out: IC50 for ATP hydrolysis, C. albicans Pma1
# [10] = read-out: IC50 for the Pma1 enzyme from C. albicans
# [11] = ATP hydrolysis at pH 7.4 (compounds marked b)
# [12] = Saccharomyces cerevisiae, ATCC9763, Table 3
# [13] = Homo sapiens, HepG2, 24 h, medium with 10% fetal bovine serum, XTT readout, read-out: EC50 for Hep-G2 cells at 24 h
# [14] = Saccharomyces cerevisiae, 0.2 h
# T1 sequence (P28877 whole entry): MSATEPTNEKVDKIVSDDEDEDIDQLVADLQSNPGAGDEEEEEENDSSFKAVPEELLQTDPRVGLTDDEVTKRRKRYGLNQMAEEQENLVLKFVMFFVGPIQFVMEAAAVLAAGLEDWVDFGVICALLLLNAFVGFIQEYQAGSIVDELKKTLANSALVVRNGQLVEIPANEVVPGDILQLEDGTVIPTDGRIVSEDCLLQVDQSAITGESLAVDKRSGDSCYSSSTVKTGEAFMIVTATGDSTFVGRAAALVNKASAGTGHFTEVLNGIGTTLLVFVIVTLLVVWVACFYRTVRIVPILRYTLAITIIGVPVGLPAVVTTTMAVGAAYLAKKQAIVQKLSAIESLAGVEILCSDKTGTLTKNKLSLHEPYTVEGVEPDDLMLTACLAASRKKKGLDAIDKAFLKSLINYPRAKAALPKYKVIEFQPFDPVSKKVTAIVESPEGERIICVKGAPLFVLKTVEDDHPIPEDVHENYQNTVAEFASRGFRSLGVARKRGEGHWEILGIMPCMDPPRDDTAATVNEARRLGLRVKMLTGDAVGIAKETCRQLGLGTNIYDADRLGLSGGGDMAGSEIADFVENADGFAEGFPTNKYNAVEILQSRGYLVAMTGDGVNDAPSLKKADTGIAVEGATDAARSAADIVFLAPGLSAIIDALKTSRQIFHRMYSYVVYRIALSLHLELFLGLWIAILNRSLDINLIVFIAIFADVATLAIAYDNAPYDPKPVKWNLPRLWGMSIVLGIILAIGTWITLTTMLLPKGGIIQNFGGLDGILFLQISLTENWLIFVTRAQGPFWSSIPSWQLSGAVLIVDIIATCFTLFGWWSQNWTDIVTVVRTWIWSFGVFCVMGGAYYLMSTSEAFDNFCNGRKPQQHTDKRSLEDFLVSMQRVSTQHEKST
# Ca^2+-ATPase (SERCA1a), sequence (P04191 1-994 isoform P04191-2): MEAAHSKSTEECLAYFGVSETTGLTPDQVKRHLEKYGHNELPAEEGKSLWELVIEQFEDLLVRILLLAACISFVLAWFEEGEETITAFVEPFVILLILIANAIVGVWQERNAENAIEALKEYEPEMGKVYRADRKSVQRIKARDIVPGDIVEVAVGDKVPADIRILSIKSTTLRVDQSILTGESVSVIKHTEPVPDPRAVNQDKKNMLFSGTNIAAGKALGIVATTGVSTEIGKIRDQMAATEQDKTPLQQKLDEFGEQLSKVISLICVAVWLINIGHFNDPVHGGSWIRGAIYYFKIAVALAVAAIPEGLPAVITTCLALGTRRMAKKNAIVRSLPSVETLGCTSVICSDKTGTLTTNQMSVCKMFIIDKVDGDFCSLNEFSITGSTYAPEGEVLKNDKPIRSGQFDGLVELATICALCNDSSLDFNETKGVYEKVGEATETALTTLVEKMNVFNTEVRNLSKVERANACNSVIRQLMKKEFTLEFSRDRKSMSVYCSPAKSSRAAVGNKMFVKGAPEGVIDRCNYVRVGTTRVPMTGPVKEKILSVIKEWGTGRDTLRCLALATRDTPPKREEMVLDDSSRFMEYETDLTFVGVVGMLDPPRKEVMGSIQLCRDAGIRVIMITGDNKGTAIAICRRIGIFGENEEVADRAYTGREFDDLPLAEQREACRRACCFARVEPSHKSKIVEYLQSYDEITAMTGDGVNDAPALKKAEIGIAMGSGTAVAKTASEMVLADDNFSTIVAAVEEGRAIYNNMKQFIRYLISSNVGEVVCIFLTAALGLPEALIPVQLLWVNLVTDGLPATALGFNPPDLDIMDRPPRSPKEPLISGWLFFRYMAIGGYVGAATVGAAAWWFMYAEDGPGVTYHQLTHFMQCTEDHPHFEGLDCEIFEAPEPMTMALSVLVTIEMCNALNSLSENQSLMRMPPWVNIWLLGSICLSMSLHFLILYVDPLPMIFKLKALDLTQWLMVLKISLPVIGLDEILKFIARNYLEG
SMILES,"IC50 [1, 9]",Compound precipitation observed in the growth medium at concentrations down to [5],MIC [6],"MIC ([2]; Aspergillus flavus, Table 3)","MIC [3, 12]","EC50 [4, 13]","IC50 [8, 14]",also measured
"N=C(N)NCCC[C@@H](N)C(=O)N[C@H](CCCNC(=N)N)C(=O)N[C@H](CCCNC(=N)N)C(=O)N[C@H](Cc1ccccc1)C(=O)N[C@H](Cc1c[nH]c2ccccc12)C(=O)N[C@H](Cc1c[nH]c2ccccc12)C(=O)N[C@H](Cc1ccccc1)C(=O)N[C@H](CCCNC(=N)N)C(=O)N[C@H](CCCNC(=N)N)C(=O)N[C@H](CCCNC(=N)N)C(N)=O [BM2, reference compound] (HELM PEPTIDE1{[dR].[dR].[dR].[dF].[dW].[dW].[dF].[dR].[dR].[dR].[am]}$$$$V2.0)",0.9 ± 0.2 µM,–,–,–,–,–,–,"IC50 [1, 10]: 0.9 µM; MIC ([2]; ATCC MYA-1005): >150 µM; MIC ([3]; ATCC 9763): 4.7 µM; Effect on mammalian Hep-G2 cells [4]: no effect; EC50 ([4]; 24 h): > 100 µM"
O=C1/C(=C/c2ccc(-c3cc(Cl)ccc3Cl)o2)C=C(c2ccccc2)N1c1ccccc1O [Compound 1],–,c Compound precipitation was observed in the growth medium at concentrations down to 15 μM.,> 150 µM,–,–,–,–,–
COc1ccc(-c2cc(C(=O)Nc3ccc(C(C)C)cc3)c3ccccc3n2)c(OC)c1 [Compound 3],–,e Compound precipitation was observed in the growth medium at concentrations down to 150 μM.,> 150 µM,–,–,–,–,–
CC1CCCCN1CC(O)Cn1c(-c2ccccc2)c(-c2ccccc2)c2ccc3ccccc3c21 (stereo not shown) [Compound 4],–,d Compound precipitation was observed in the growth medium at concentrations down to 48 μM.,> 38 µM,–,–,–,–,–
CCOc1ccc2nc3cc(NC(=O)c4cccc(Br)c4)ccc3c(N)c2c1 [Compound 5],–,f Compound precipitation was observed in the growth medium at concentrations down to 75 μM.,–,–,–,–,–,–
Cc1c(-c2ccccc2)[o+]c2ccccc2c1C#Cc1ccccc1 [Compound 6],–,d Compound precipitation was observed in the growth medium at concentrations down to 48 μM.,> 150 µM,–,–,–,–,"IC50 [7, 11]: 3.4 ± 0.6 µM"
Oc1cccc(Nc2nc(-c3ccc(Cl)c(Cl)c3)cs2)c1 [Compound 7],–,d Compound precipitation was observed in the growth medium at concentrations down to 48 μM.,–,–,–,–,–,"IC50 [7, 11]: 3.8 ± 0.6 µM"
COc1ccc(-c2cc(C(=O)Nc3ccc4c(c3)OCCO4)c3ccccc3n2)c(OC)c1 [Compound 8],–,d Compound precipitation was observed in the growth medium at concentrations down to 48 μM.,> 38 µM,–,–,–,–,–
COc1cccc(Nc2nc(Cl)nc(Nc3cccc(OC)c3)n2)c1 [Compound 9],–,d Compound precipitation was observed in the growth medium at concentrations down to 48 μM.,> 150 µM,–,–,–,–,–
CCCCOc1ccc(C2C(C#N)=C(N)Oc3cc(O)ccc32)cc1 (stereo not shown) [Compound 11],–,d Compound precipitation was observed in the growth medium at concentrations down to 48 μM.,> 150 µM,–,–,–,–,–
COc1ccc(Cn2c(SCc3cc(C)ccc3C)nc3cc(OC)c(OC)cc3c2=N)cc1 [Compound 12],–,e Compound precipitation was observed in the growth medium at concentrations down to 150 μM.,> 150 µM,–,–,–,–,IC50 ([7]; ATP hydrolysis at pH 7): > 105 µM
CCCCc1nc2sc3c(NCCCN(C)C)ncnc3c2c2c1CCCC2 [Compound 14],17 ± 0.9 µM,–,–,75 µM,7.5 µM,2.3 µM,11.2 ± 2.7 µM,"IC50 [1, 10]: 17 µM"
CCCCc1nc2sc3c(NCCCN(C)C)nc(SC)nc3c2c2c1CCC2 [Compound 15],6.3 ± 0.5 µM,–,–,24 µM,1.5 µM,2.8 ± 0.1 µM,1.7 ± 0.1 µM,–
CN(C)CCCNc1ncnc2c1sc1nc(N3CCCCC3)c3c(c12)CCCC3 [Compound 16],9.5 ± 1 µM,–,–,47 µM,3.2 µM,2.6 ± 0.9 µM,7.6 ± 3.4 µM,–
CCc1nc2sc3c(NCCCN(C)C)ncnc3c2c2c1CCCC2 [Compound 17],151 ± 6.2 µM,–,–,> 150 µM,47 µM,5.8 ± 1.1 µM,39.6 ± 10.3 µM,–
CN(C)CCCNc1ncnc2c1sc1nc(-c3ccccc3)c3c(c12)CCC3 [Compound 18],22.9 ± 2 µM,–,–,> 75 µM,24 µM,3.6 ± 1.1 µM,12.5 ± 1.1 µM,–
CCN(CC)CCCNc1nc(SC)nc2c1sc1nc(-c3ccccc3)c3c(c12)CCC3 [Compound 19],8.7 ± 0.5 µM,–,–,12 µM,3.7 µM,24.2 ± 0.5 µM,2.3 ± 0.1 µM,"IC50 [1, 10]: 9 µM; Toxicity window between C. albicans and Hep-G2 cells ([4]; human, 24 h): 3 fold"
"O=c1c2ccccc2[se]n1-c1ccccc1 [Ebselen, reference compound]",–,–,–,24 µM,7.5 µM,10.7 ± 7 µM,7.6 µM,"IC50 ([1]; IC50 for ATP hydrolysis, C. albicans Pma1, Table 2, pH 7, n = 2): 0.51 ± 0.04 µM"
"[O]=[V]([O-])([O-])[O-] [Vanadate, reference compound]",0.23 ± 0.05 µM,–,–,–,–,–,–,"MIC ([2]; Table 3): >750 µM; MIC ([3]; Table 3): >750 µM; EC50 ([4]; 24 h, medium with 10% fetal bovine serum, XTT readout, read-out: EC50 for Hep-G2 cells at 24 h): > 500 µM; IC50 [8]: > 40 µM"
